{"source": "patent US12325744B2", "about": "“Methods for reducing post-operative cognitive dysfunction (POCD)” (The Kennedy Trust for Rheumatology Research, priority 2010, dated 2025)", "key": {"IL-1β [1]": {"system": "IL-1β", "experiment": "Plasma IL-1β by ELISA after LPS injection", "format": "in vivo, mice", "conditions": "LPS 1 mg/kg i.p., IL-1Ra 100 mg/kg s.c. immediately before LPS", "method": "(§1) Treatment. LPS derived from Escherichia Coli endotoxin ([…], InvivoGen, USA, 1 mg/kg) was dissolved in normal saline and injected intraperitoneally. IL-1Ra (Amgen, Anakinra 100 mg/kg, Nederlands) was given subcutaneously immediately before LPS administration. Dose response curve from LPS or IL-1Ra was obtained from our pilot studies to provoke or to suppress moderate degree of microglia activation respectively. Control animals were injected with equivalent volumes (0.1 ml) of saline. Mice from each treatment group were randomly assigned for assessment of either cytokine response or cognitive behavior, in order to obviate possible confounding effects of behavioral testing on inflammatory markers.\n(§2) Plasma cytokine measurement. Blood was sampled transcardially after thoracotomy under terminal anesthesia 30 minutes, 2, 6, 12 hours and 1, 3, 7 days after experiments in the different cohorts and centrifuged at 3,600 rpm for 7 minutes at 4° C. Blood samples taken from animals without any interventions severed as controls. Plasma samples were stored at −20° C. for further analysis. Plasma cytokine and HMGB-1 were measured using commercially available ELISA kits from Biosource, CA and Shino-test Corporation, Japan, respectively. The sensitivities of the assays were <3 pg/ml for TNFα, <7 pg/ml for IL-1β, <3 pg/ml for IL-6 and 1 ng/ml for HMGB-1."}, "IL-6": {"system": "IL-6", "experiment": "Plasma IL-6 by ELISA after LPS injection", "format": "in vivo, mice", "conditions": "LPS 1 mg/kg i.p., IL-1Ra 100 mg/kg s.c. immediately before LPS", "method": "as §1, §2"}, "microglia": {"system": "microglia", "experiment": "Hippocampal microglia anti-CD11b immunohistochemistry grading (0-3) after tibial surgery", "format": "in vivo", "conditions": "wild type mice, 1 day after surgery", "source_text": "Immunohistochemistry. Fixed brains were collected for immunohistochemical DAB staining for CD11 b and scored as previously described^21. (For further details please refer to supplemental methods).\nUnder terminal anesthesia with pentobarbital, mice were euthanized and perfused transcardially with ice-cold heparinized 0.1M phosphate buffer solution (PBS) followed by 4% paraformaldehyde in 0.1M PBS at pH 7.4 (VWR International, Lutterworth, Leicester, UK). The brains were harvested and post-fixed in 4% paraformaldehyde in 0.1M PBS at 4° C. and cryoprotected in 0.1M PBS solutions containing 15% sucrose for 24 hours (VWR International, Lutterworth, Leicester, UK) and then 30% sucrose for a further 48 hours. […]\nImmunohistochemistry: Fixed brains were collected for immunohistochemical DAB staining for microglia activation using CD11 b and scored as previously described (13).\nMethods: Adult C56BL/6J male mice were randomly assigned into groups that were: 1) untreated (naïve) animals; 2) tibial fracture under GA and analgesia; 3) 24 h following tibial surgery, i.p. injection of LPS (1 mg/kg) 4) LPS injection only. Separate cohorts of mice per group were assessed for inflammatory markers (plasma cytokines and microglial activation), or hippocampal-dependent memory using trace fear conditioning (TFC)."}, "IL-1β [2]": {"system": "IL-1β", "experiment": "Hippocampal IL-1β by ELISA after tibial surgery", "format": "in vivo", "conditions": "wild type mice, 6 h (minocycline, enrofloxacin) or 24 h (IL-1Ra) after surgery", "method": "IL-6, TNF-α and IL-1β were measured by ELISA^19 (Biosource, CA; Bender Medsystem, CA, respectively). Hippocampal IL-1β was measured by ELISA (Bender Medsystem, CA), as previously described^20. To confirm reliability of dilution linearity and spike recovery cytokine measurement were also performed in mice in which inflammation was induced with i.p. LPS (0111:B4, Invivogen, CA). (For further details please refer to supplemental methods).\nUnder terminal anesthesia with pentobarbital, each mouse was euthanized and the brain quickly removed following decapitation. The hippocampus was dissected under microscopy on a frosted glass plate placed on top of crushed ice, then snap frozen and stored at −80° C. until processing. Each hippocampus was added to Iscove's culture medium containing 5% fetal calf serum (FCS) and a cocktail of enzyme inhibitors (in mM: 100 amino-n-caproic acid, 10 EDTA, 5 benzamidine-HCl, and 0.2 phenylmethylsulfonyl fluoride). […] IL-1β was measured in the supernatant from hippocampal extracts, which were appropriately diluted prior to measurement to fall on the linear portion of the sigmoid curve, using a commercially available ELISA kit (Bender Medsystem, CA). […]\nCytokine analyses: Systemic and hippocampal IL-1β was measured by ELISA (Bender Medsystem, CA; 1.2 pg/ml of sensitivity), as previously described (12)."}, "HMGB-1": {"system": "HMGB-1", "experiment": "Plasma HMGB-1 by ELISA after LPS injection", "format": "in vivo, mice", "conditions": "LPS 1 mg/kg i.p.; IL-1Ra 100 mg/kg s.c. immediately before LPS", "method": "as §1, §2"}}, "note": "Entries after “also recorded” stand apart in the source; their conditions may differ.", "data": [{"substance": "IL-1Ra: IL-1 receptor antagonist (Amgen, Anakinra)", "values": [{"measurement": "Plasma IL-1β at 6 hours after LPS with IL-1Ra", "setting": "IL-1β [1]; 6 hours", "value": "32.7 ± 5.45", "unit": "pg/mL"}, {"measurement": "Plasma IL-1β at 24 hours after LPS with IL-1Ra", "setting": "IL-1β [1]; 24 hours", "value": "6.2 ± 1.03", "unit": "pg/mL"}, {"measurement": "Plasma IL-6 at 6 hours after LPS with IL-1Ra", "setting": "IL-6; 6 hours", "value": "91.02 ± 15.17", "unit": "pg/mL"}, {"measurement": "Plasma IL-6 at 24 hours after LPS with IL-1Ra", "setting": "IL-6; 24 hours", "value": "14.05 ± 2.34", "unit": "pg/mL"}, {"measurement": "Reactive microgliosis in hippocampus (CD11b grading) after surgery, effect of treatment", "setting": "microglia", "value": "surgery did not increase hippocampal microgliosis; also recorded: surgery did not activate microglia if IL-1Ra was given pre-operatively"}, {"measurement": "Hippocampal IL-1β expression after surgery, effect of treatment", "setting": "IL-1β [2]", "value": "did not increase hippocampal microgliosis (FIG. 6, A-B-C) or expression of IL-1β; also recorded: Hippocampal IL-1β did not significantly increase"}, {"measurement": "Plasma HMGB-1 after LPS, effect of IL-1Ra", "setting": "HMGB-1", "value": "had no effects on HMGB-1 release in plasma; also recorded: had no effects on HMGB-1 levels"}]}]}
